In this assay the test system is T1, mitochondrial complex I.
T1 construct: native multi-subunit complex in sonicated mitochondria isolated from potato tuber; with Gamma-CA (complex I subunit detected in the pull-down)
Description: deamino-NADH oxidation ([…] nm) in sonicated mitochondria; OCR; pull-down with FSL0260-fixed agarose beads. In kind it is biochemical, Solanum tuberosum.

In general, IC50 refers to the concentration that gives 50% inhibition.

With `Cc1ccc(S(=O)(=O)OCC2Oc3ccccc3C=C2C[n+]2ccccc2)cc1` (stereo not shown) [FSL0260], the IC50 was determined as 45.1 µM.

The values are drawn from paper PMC7250896, “Inhibition of mitochondrial complex I by the novel compound FSL0260 enhances high salinity-stress tolerance in Arabidopsis thaliana” (Scientific Reports, 2020).
